Results from ChEMBL document CHEMBL1131778, “Solid phase synthesis of quinolones” (1999).

How the values were obtained:
Brugia malayi [1] = experiment: In vitro anti-filarial activity against female adult worms of Brugia. malayi at 100 uM concentration, using MTT reduction potential assay.; format: functional
Brugia malayi [2] = experiment: In vitro anti-filarial activity against male adult worms of Brugia. malayi at 100 uM concentration, using MTT reduction potential assay.; format: functional
Brugia malayi [3] = experiment: In vitro anti-filarial activity against male adult worms of Brugia. malayi at 100 uM concentration, using motility assay D = Dead worms; format: functional, organism-based
Brugia malayi [4] = experiment: In vitro anti-filarial activity against female adult worms of Brugia. malayi at 100 uM concentration, using motility assay; D = Dead worms; format: functional, organism-based
Brugia malayi [5] = experiment: In vitro anti-filarial activity against male adult worms of Brugia. malayi at 100 uM concentration, using motility assay.; format: functional
Brugia malayi [6] = experiment: In vitro anti-filarial activity against female adult worms of Brugia. malayi at 100 uM concentration, using motility assay; format: functional
Brugia malayi [7] = experiment: In vitro anti-filarial activity against female adult worms of Brugia. malayi at 100 uM concentration, using motility assay.; format: functional
Brugia malayi [8] = experiment: In vitro anti-filarial activity against male adult worms of Brugia. malayi at 100 uM concentration, using motility assay; D = Dead worms; format: functional, organism-based
Brugia malayi [9] = experiment: In vitro anti-filarial activity of the compound against male adult worms of Brugia. malayi at 100 uM concentration, using MTT reduction potential assay.; format: functional

Row | Compound | inhibition at 100 µM (Brugia malayi [1]) | inhibition at 100 µM (Brugia malayi [2]) | Mortality (Brugia malayi [3]) | Mortality (Brugia malayi [4]) | Mortality (Brugia malayi [5]) | Mortality (Brugia malayi [6]) | Mortality (Brugia malayi [7]) | Mortality (Brugia malayi [8]) | inhibition at 100 µM (Brugia malayi [9])
1 | CCCCCCCCNC(=O)c1cnc2ccc(C(=O)O)cc2c1O | 84.8% | 62.8% | Dead worms | Dead worms |  |  |  |  | 
2 | O=C(O)c1ccc2ncc(C(=O)NC3CCCCC3)c(O)c2c1 | 0% | 0% |  |  | 3 | 3 |  |  | 
3 | O=C(O)c1ccc2ncc(C(=O)NC3CCCCCC3)c(O)c2c1 | 0% | 0% |  |  | 3 |  | 3 |  | 
4 | CCCCCCNC(=O)c1cnc2ccc(C(=O)O)cc2c1O | 64.8% |  |  | Dead worms |  |  |  | Dead worms | 58.8%
5 | CCOC(=O)c1cnc2ccc(C(=O)O)cc2c1O | 0% | 0% |  |  | 3 |  | 3 |  | 
